Measurements taken from ChEMBL document CHEMBL4334438, “Discovery of novel glycogen synthase kinase-3α inhibitors: Structure-based virtual screening, preliminary SAR and biological evaluation for treatment of acute myeloid leukemia” (Eur J Med Chem, 2019).

Experiments:
[1] = tested on: Tyrosine-protein kinase ABL1 (Homo sapiens), P00519 [Y253F]; test: Inhibition of human ABL1 Y253F mutant (27 to end residues) assessed as residual activity at 1 uM using EAIYAAPFAKKK as substrate incubated for 40 mins in presence of [gamma-33ATP] by scintillation counting based radiometry assay relative to control
[2] = biological target: Calcium/calmodulin-dependent protein kinase type II subunit delta (Homo sapiens) (UniProt Q13557); test: Inhibition of recombinant full length human CaMK2delta assessed as residual activity at 1 uM […] incubated for 40 mins in presence of [gamma-33ATP] by scintillation counting based radiometry assay relative to control
[3] = biological target: Cyclin-dependent kinase 2/cyclin E1 (Homo sapiens) (UniProt P24864+P24941); test: Inhibition of recombinant full length human CDK2/CyclinE assessed as residual activity at 1 uM using Histone H1 as substrate incubated for 40 mins in presence of [gamma-33ATP] by scintillation counting based radiometry assay relative to control; format: protein-complex assay
[4] = biological target: Serine/threonine-protein kinase 35 (Homo sapiens) (UniProt Q8TDR2); test: Inhibition of recombinant full length human CLIK1 assessed as residual activity at 1 uM using RSRSRSRSRSRS as substrate incubated 40 mins in presence of [gamma-33ATP] by scintillation counting based radiometry assay relative to control
[5] = tested on: Mast/stem cell growth factor receptor Kit (Homo sapiens), P10721 [D816V]; test: Inhibition of recombinant human C-Kit D816V mutant (544 to end residues) assessed as residual activity at 1 uM poly(Glu, Tyr) 4:1 as substrate incubated 40 mins in presence of [gamma-33ATP] by scintillation counting based radiometry assay relative to control
[6] = tested on: Fibroblast growth factor receptor 2 (Homo sapiens), P21802 [N549H]; test: Inhibition of recombinant human FGFR2 N549H mutant (456 to 770 residues) assessed as residual activity at 1 uM using GGEEEEYFELVKKKK as substrate at 40 mins in presence of [gamma-33ATP] by scintillation counting based radiometry assay relative to control
[7] = biological target: Fibroblast growth factor receptor 4 (Homo sapiens) (UniProt P22455); test: Inhibition of recombinant human FGFR4 (442 to 755 residues) assessed as residual activity at 1 uM using poly(Glu, Tyr) 4:1 as substrate at 40 mins in presence of [gamma-33ATP] by scintillation counting based radiometry assay relative to control
Fibroblast growth factor receptor 4 (Homo sapiens), sequence (P22455 22-802 limits assumed): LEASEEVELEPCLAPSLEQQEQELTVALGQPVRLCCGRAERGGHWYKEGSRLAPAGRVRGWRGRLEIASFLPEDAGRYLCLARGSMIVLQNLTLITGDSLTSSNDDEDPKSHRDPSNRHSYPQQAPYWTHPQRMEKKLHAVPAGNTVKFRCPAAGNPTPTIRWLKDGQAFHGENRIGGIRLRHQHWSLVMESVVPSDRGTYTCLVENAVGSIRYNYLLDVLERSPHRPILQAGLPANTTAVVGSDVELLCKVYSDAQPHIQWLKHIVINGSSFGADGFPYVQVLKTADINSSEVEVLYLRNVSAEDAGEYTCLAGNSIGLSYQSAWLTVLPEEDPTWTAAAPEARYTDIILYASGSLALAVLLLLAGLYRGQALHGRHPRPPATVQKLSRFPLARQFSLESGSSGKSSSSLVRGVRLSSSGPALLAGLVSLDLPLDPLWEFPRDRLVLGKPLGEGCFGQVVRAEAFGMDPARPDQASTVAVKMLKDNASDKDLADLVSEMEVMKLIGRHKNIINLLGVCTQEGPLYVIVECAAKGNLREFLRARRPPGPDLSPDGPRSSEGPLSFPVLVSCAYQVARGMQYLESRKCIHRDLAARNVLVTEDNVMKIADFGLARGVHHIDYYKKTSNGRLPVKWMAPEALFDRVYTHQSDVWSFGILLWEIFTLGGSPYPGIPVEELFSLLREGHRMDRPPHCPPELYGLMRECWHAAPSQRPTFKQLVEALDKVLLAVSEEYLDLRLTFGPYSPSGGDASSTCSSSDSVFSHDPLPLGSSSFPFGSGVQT

[8] = biological target: Vascular endothelial growth factor receptor 1 (Homo sapiens) (UniProt P17948); test: Inhibition of recombinant human FLT1 (783 to end residues) assessed as residual activity at 1 uM using KKKSPGEYVNIEFG as substrate at 40 mins in presence of [gamma-33ATP] by scintillation counting based radiometry assay relative to control
[9] = biological target: Homeodomain-interacting protein kinase 1 (Homo sapiens) (UniProt Q86Z02); test: Inhibition of human HIPK1 (158 to 555 residues) assessed as residual activity at 1 uM using myelin basic protein as substrate after 40 mins by [gamma-33ATP] radiometric assay relative to control
[10] = biological target: Mitogen-activated protein kinase kinase kinase kinase 1 (Homo sapiens) (UniProt Q92918); test: Inhibition of human HPK1 (1 to 346 residues) assessed as residual activity at 1 uM using myelin basic protein as substrate after 40 mins by [gamma-33ATP] radiometric assay relative to control
[11] = biological target: Tyrosine-protein kinase JAK1 (Homo sapiens) (UniProt P23458); test: Inhibition of human JAK1 (866 to end residues) assessed as residual activity at 1 uM using GEEPLYWSFPAKKK as substrate after 40 mins by [gamma-33ATP] radiometric assay relative to control
[12] = biological target: Tyrosine-protein kinase JAK2 (Homo sapiens) (UniProt O60674); test: Inhibition of human JAK2 (808 to end residues) assessed as residual activity at 1 uM using KTFCGTPEYLAPEVRREPRILSEEEQEMFRDFDYIADWC as substrate after 40 mins by [gamma-33ATP] radiometric assay relative to control
Tyrosine-protein kinase JAK2 (Homo sapiens), sequence (O60674 whole entry): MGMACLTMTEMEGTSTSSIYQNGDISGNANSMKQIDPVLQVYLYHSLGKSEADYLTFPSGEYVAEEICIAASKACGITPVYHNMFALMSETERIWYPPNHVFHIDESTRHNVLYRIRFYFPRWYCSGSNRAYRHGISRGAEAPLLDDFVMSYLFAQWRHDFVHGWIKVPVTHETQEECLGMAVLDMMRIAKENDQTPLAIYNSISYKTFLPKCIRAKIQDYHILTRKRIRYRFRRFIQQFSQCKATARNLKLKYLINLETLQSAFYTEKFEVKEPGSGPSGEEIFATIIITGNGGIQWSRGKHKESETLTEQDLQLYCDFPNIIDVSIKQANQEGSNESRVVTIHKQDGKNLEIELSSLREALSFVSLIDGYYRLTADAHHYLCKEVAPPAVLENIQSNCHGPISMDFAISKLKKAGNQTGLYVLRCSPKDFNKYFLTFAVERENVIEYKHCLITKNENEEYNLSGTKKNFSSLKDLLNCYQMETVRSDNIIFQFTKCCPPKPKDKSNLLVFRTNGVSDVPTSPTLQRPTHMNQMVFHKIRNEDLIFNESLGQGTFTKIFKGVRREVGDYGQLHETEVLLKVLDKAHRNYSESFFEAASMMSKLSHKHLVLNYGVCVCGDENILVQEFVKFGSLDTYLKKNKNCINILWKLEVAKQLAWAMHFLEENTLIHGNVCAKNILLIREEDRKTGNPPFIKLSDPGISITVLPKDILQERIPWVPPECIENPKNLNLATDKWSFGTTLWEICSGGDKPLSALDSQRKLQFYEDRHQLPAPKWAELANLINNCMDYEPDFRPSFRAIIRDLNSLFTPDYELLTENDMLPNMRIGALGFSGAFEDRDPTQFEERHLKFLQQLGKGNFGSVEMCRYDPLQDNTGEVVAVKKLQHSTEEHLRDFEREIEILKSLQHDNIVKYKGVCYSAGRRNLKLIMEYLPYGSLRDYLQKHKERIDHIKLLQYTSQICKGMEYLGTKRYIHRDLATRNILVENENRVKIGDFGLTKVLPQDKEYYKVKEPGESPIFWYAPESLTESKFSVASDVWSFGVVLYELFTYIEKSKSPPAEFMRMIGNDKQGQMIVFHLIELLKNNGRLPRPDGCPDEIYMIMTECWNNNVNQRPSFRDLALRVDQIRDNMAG

[13] = biological target: Serine/threonine-protein kinase mTOR (Homo sapiens) (UniProt P42345); test: Inhibition of recombinant full-length human mTOR assessed as residual activity at 1 uM measured after 40 mins in presence of [gamma33P]ATP by scintillation counting method relative to control
[14] = biological target: Serine/threonine-protein kinase Nek9 (Homo sapiens) (UniProt Q8TD19); test: Inhibition of recombinant human NEK9 (1 to 324 residues) assessed as residual activity at 1 uM using myelin basic protein as substrate measured after 40 mins in presence of [gamma33P]ATP by scintillation counting method relative to control
[15] = biological target: Serine/threonine-protein kinase PAK 6 (Homo sapiens) (UniProt Q9NQU5); test: Inhibition of recombinant human PAK6 (382 to end residues) assessed as residual activity at 1 uM using RRRLSFAEPG as substrate measured after 40 mins in presence of [gamma33P]ATP by scintillation counting method relative to control
[16] = tested on: Serine/threonine-protein kinase Sgk2 (Homo sapiens), Q9HBY8 [S416D]; test: Inhibition of recombinant human SGK2 S416D mutant (54 to end residues) assessed as residual activity at 1 uM using GRPRTSSFAEGKK as substrate measured after 40 mins in presence of [gamma33P]ATP by scintillation counting method relative to control
Serine/threonine-protein kinase Sgk2 (Homo sapiens), Q9HBY8 [S416D], sequence (Q9HBY8 1-367 with tags or gaps S416D): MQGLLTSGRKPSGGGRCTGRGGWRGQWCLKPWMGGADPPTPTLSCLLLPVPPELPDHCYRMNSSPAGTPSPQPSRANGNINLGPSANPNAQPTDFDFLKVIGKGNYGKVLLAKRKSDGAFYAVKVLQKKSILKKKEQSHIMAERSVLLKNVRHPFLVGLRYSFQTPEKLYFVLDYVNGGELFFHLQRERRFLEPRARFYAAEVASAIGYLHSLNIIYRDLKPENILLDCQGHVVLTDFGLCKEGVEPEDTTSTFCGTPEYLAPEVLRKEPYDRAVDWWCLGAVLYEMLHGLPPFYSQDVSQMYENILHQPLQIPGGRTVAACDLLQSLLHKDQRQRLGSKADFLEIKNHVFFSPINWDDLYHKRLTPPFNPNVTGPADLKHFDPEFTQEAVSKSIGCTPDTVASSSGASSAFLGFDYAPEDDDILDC

[17] = biological target: Serine/threonine-protein kinase tousled-like 1 (Homo sapiens) (UniProt Q9UKI8); test: Inhibition of recombinant full-length human TLK1 at 1 uM assessed as residual activity at 1 uM using casein as substrate measured after 40 mins in presence of [gamma33P]ATP by scintillation counting method relative to control
[18] = biological target: Serine/threonine-protein kinase ULK2 (Homo sapiens) (UniProt Q8IYT8); test: Inhibition of human ULK2 (1 to 306 residues) assessed as residual activity at 1 uM using casein as substrate measured after 40 mins in presence of [gamma33P]ATP by scintillation counting method relative to control
[19] = biological target: Serine/threonine-protein kinase VRK2 (Homo sapiens) (UniProt Q86Y07); test: Inhibition of human VRK2 (1 to 336 residues) assessed as residual activity at 1 uM using casein as substrate measured after 40 mins in presence of [gamma33P]ATP by scintillation counting method relative to control
[20] = biological target: Serine/threonine-protein kinase WNK1 (Homo sapiens) (UniProt Q9H4A3); test: Inhibition of human WNK1 (1 to 491 residues) assessed as residual activity at 1 uM using myelin basic protein as substrate measured after 120 mins in presence of [gamma33P]ATP by scintillation counting method relative to control
Serine/threonine-protein kinase WNK1 (Homo sapiens), sequence (Q9H4A3 whole entry, looked up, the tested form may be a part): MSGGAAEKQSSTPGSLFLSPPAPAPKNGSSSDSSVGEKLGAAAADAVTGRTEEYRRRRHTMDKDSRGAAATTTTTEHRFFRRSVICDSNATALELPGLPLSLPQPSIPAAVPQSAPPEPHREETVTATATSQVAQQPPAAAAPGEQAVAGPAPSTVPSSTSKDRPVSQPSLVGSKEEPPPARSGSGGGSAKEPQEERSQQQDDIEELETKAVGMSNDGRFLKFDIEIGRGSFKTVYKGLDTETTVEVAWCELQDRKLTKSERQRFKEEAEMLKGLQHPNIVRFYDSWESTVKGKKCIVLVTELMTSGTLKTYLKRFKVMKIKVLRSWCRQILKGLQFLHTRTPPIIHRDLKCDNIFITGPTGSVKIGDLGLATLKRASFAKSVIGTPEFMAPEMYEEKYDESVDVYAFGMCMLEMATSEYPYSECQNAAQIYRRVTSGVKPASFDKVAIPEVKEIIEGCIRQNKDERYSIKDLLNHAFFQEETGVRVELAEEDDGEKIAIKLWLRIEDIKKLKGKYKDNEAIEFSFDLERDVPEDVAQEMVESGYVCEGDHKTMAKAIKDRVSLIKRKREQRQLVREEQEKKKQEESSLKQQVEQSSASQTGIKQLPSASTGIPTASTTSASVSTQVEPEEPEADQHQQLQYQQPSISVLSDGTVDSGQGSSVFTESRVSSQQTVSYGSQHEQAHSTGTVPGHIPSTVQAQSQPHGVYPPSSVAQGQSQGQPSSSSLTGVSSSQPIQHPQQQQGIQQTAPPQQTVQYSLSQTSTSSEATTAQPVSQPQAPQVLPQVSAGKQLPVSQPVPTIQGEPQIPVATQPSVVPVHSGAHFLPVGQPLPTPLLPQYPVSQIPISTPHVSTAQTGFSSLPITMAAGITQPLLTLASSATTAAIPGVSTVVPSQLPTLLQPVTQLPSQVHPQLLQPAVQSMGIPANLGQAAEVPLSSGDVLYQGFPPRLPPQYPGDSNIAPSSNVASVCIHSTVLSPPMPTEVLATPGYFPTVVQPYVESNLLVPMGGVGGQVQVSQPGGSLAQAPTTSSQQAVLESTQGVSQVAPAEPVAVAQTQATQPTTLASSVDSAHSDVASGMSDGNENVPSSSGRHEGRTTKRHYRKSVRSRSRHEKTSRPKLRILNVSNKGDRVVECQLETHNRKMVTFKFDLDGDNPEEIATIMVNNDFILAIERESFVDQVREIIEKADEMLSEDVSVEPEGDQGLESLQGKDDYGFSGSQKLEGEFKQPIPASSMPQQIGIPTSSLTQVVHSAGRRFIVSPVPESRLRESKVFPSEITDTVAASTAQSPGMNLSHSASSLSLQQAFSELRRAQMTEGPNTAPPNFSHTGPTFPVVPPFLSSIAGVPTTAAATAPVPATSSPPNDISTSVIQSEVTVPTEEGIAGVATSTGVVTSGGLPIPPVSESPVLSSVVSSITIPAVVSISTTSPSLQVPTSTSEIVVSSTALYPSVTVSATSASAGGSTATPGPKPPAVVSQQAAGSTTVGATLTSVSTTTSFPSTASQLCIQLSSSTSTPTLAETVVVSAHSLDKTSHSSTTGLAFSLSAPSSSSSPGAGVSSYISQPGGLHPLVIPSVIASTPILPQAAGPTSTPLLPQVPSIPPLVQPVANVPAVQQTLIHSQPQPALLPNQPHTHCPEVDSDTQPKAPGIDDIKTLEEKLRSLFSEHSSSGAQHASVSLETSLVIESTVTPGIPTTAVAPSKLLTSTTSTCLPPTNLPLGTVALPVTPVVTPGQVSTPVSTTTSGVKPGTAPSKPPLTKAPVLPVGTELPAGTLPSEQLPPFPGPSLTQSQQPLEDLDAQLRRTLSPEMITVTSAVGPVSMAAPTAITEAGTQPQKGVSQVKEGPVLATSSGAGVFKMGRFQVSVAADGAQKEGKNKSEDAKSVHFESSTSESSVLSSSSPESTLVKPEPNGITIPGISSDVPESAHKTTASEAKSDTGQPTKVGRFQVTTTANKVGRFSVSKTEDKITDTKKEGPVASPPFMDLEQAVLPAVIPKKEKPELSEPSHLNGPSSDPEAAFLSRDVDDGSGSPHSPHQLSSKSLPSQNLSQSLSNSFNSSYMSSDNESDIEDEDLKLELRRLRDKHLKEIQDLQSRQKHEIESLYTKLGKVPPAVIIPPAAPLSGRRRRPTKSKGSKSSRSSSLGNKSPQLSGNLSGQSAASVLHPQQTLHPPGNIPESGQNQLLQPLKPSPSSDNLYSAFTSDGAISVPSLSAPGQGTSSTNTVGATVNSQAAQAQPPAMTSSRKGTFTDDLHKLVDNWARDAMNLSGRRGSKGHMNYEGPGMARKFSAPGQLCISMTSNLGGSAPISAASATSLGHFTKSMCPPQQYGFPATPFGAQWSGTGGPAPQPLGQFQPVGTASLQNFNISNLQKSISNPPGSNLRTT

Mus musculus = species: Mus musculus; test: Inhibition of recombinant full-length mouse PI3K p110alpha/p85alpha at 1 uM assessed as residual activity at 1 uM using phosphatidylinositol-4, 5-bisphosphate as substrate measured after 40 mins by HTRF assay
[21] = biological target: Phosphatidylinositol 4-phosphate 5-kinase type-1 alpha (Homo sapiens) (UniProt Q99755); test: Inhibition of recombinant full-length human PIP5K1alpha at 1 uM assessed as residual activity at 1 uM using phosphatidylinositol 4-phosphate as substrate measured after 40 mins by HTRF assay

Row | SMILES | Activity [1] | Activity [2] | Activity [3] | Activity [4] | Activity [5] | Activity [6] | Activity [7] | Activity [8] | Activity [9] | Activity [10] | Activity [11] | Activity [12] | Activity [13] | Activity [14] | Activity [15] | Activity [16] | Activity [17] | Activity [18] | Activity [19] | Activity [20] | further results
1 | N=C1NC(=O)/C(=C\c2ccc(-c3cccc([N+](=O)[O-])c3)o2)S1 | 94% | 92% | 62% | 51% | 94% | 96% | 106% | 97% | 3% | 97% | 96% | 102% | 95% | 103% | 91% | 101% | 110% | 102% | 101% | 97% | Activity (Mus musculus): 97%; Activity [21]: 102%
2 | C=CCOC(=O)c1cc(-c2ccc(/C=C3/NC(=S)NC3=O)o2)ccc1Cl | 88% | 65% | 58% | 74% | 97% | 100% | 95% | 96% | 5% | 98% | 106% | 108% | 88% | 101% | 107% | 108% | 101% | 103% | 100% | 94% | Activity (Mus musculus): 93%; Activity [21]: 98%
